Data as given in patent US20260207570A1, “OPTIMIZED DOSING OF LERIGLITAZONE” (MINORYX THERAPEUTICS S.L., priority 2022, published 2026).

How the values were obtained:
CYP3A4 [1] = target: T1, CYP3A4 (Homo sapiens, UniProt P08684); test: Metabolism kinetics with recombinant CYP3A4; assay type: in vitro ADME; set-up: purchased ADMESCOPE, Finland; settings: used initial concentrations; Km and Vmax could not be fitted
Text: (§1) CYP2C8 and CYP3A4 were identified in vitro as the major contributing enzymes of leriglitazone with CYP2C8 mostly responsible for the formation of the main metabolite M3. Kinetic parameters of human CYP2C8 and CYP3A4 mediated metabolism of leriglitazone were studied in in vitro studies using recombinant CYP3A4 and CYP2C8 enzymes (ADMESCOPE, Finland). […] As the disappearance of leriglitazone was very slow especially at high initial concentrations, the accuracy of the fit was not as good as based on M3 formation. […] Thus, it was not possible to fit the kinetic parameters Km and Vmax.

[2] = Biliary clearance in sandwich-cultured hepatocytes; assay type: in vitro ADME; settings: sandwich-cultured hepatocytes
[3] = system: sandwich-cultured hepatocytes; test: Biliary clearance in sandwich-cultured hepatocytes; assay type: in vitro ADME; settings: after scaling up
CYP3A4 [4] = target: T1, CYP3A4; test: CYP3A4 contribution to clearance (fm, CLint) for the PBPK model
Text: as §1

[5] = Adult PBPK model (Simcyp) development, simulation and verification; set-up: species or system human
Text: A PBPK model for leriglitazone HCl was developed with the Simcyp Population-Based Simulator Version 17 release 1.
A first-order absorption model with inputs based on clinical data was used to describe the absorption kinetics of the drug. Dose-dependent ka values were estimated from phase 1 SAD data and were incorporated to account for the less than dose proportional increase in the Cmax of leriglitazone as well as the negative food effect on the Cmax (Table 2).
A global scalar of 0.7 was applied to match the estimated value. The full PBPK model was applied in all simulations of the plasma concentration-time profiles of the drug in order to recover the shape of the concentration-time profiles.
Predictions of plasma concentration-time profiles and clearance were performed in the Simcyp Simulator using the default Sim-Healthy volunteer population, whose parameter values have been described previously. Howgate, E. M., et al., Xenobiotica Fate Foreign Compd. Biol. Syst. 36, 473-497 (2006); Inoue, S. et al., Xenobiotica Fate Foreign Compd. Biol. Syst. 36, 499-513 (2006). The trial design used for simulation of the plasma concentration-time profile of a single dose of leriglitazone in fasted and fed subjects was based on the phase 1 SAD results. Concentration-time profiles, using 10 virtual trials of 6 subjects (all male) aged 21 to 50 years receiving a single oral dose of 30, 90 or 270 mg under the fasted conditions and a single oral dose of 90 or 270 mg under fed conditions were simulated over a duration of 144 hours. Visual checks of the predicted concentration-time profiles were performed and the key PK parameters (AUC, Cmax and Tmax) were compared to those observed in the phase 1 study (Table 8).
The PBPK model was verified by comparing the predicted concentration-time profiles with the observed phase 1 MAD data. The trial design used for simulation was based on multiple doses of 135 mg or 270 mg in fed healthy subjects. […]

[6] = PBPK model input parameters: blood and plasma binding; assay type: in vitro ADME, human
[7] = Single dose neuro-pk study in rats; assay type: in vivo; settings: rat
Protocol: The ratio of unbound leriglitazone concentration in brain to unbound concentration in plasma (Kpu,u; Cb,u/Cp,u) was calculated dividing the unbound CSF Cmax by the unbound plasma Cmax. Fractions unbound in plasma (fu,p) to obtain the unbound Cmax values were already reported. Rodriguez-Pascau, L. et al., Sci. Transl. Med. 13, eabc0555 (2021).
In a single dose neuro-pk study in rats, at the efficacious dose of 17 mg/kg, the unbound brain concentration of leriglitazone was 175 ng/ml similar to the measured CSF concentration of 274 ng/ml (FIG. 7). Given the validity of CSF as a surrogate marker for brain unbound concentration was proven in rats, CSF levels of leriglitazone were measured in Phase 1 study and confirmed to be similar as in rodents. Unbound brain to plasma ratio (Kpu,u) of leriglitazone as a measure of brain distribution of free drug was 0.55 in humans and 0.25 in rats (Table 7).

[8] = before accounting for biliary and renal clearance

T1 sequence (P08684 whole entry): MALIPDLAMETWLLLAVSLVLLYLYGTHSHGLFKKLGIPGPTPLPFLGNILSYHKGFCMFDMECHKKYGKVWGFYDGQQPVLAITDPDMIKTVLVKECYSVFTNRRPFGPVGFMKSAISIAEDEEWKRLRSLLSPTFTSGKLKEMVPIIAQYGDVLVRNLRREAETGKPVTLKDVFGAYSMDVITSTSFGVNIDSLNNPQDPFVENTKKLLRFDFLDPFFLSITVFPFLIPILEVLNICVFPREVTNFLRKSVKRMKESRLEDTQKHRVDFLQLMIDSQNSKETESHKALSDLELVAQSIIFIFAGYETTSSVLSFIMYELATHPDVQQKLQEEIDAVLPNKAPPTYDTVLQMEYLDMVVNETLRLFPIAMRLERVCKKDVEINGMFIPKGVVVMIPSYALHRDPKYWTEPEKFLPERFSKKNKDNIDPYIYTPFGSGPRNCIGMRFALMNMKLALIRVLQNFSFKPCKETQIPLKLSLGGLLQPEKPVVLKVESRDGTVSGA

## CC(O)c1ccc(CCOc2ccc(CC3SC(=O)NC3=O)cc2)nc1 (centres unmarked) [Leriglitazone, 5-[[4-[2-[5-(1-hydroxyethyl)pyridin-2-yl]ethoxy]phenyl]methyl]-1,3-thiazolidine-2,4-dione]
CYP3A4 [1]
  saturation of metabolism by recombinant CYP3A4: did not saturate
[2]
  hepatocyte CLint: 0.358 µL/min/1e6 cells
  microsomal CLint: 0.5 µL/min/mg
[3]
  biliary clearance as fraction of total clearance (feBIL): 19.5%
CYP3A4 [4]; PBPK model input, calculated from estimated fm and mean CL/F
  CLint, CYP3A4: 0.0097 µL/min/pmol
CYP3A4 [4]; [8]
  share of metabolism, CYP3A4: 30%
[5]; PBPK model
  renal clearance fraction (fe): 5%
[5]; PBPK model input
  CLint, additional: 0.281 µL/min/mg
[5]; [8]
  share of metabolism, undefined metabolism: 6%
[6]
  B:P: 0.73
  fugut: 1
[6]; human, plasma
  fraction unbound: 0.04
[7]; CSF and plasma (unbound), 17 mg/kg, unbound CSF Cmax / unbound plasma Cmax, read-out: Kpu, u based on CSF
  Kp: 0.25
[7]; plasma, 17 mg/kg single dose, read-out: Total plasma AUC
  AUC: 102 µg·h/mL
[7]; plasma, 17 mg/kg single dose, read-out: Total plasma Cmax
  Cmax: 21100 ng/mL
[7]; 17 mg/kg single dose
  CSF Cmax: 274 ng/mL
  Total brain AUC: 6582 ng·h/mL
  Total brain Cmax: 1337.6 ng/mL
[7]; 17 mg/kg, unbound CSF Cmax / unbound plasma Cmax
  Kpu, u based on CSF: 0,25
[7]; efficacious dose of 17 mg/kg, single dose
  unbound brain concentration: 175 ng/mL
